Results published in paper PMC4764579, “Structural insights into the mechanism of activation of the TRPV1 channel by a membrane-bound tarantula toxin” (eLife, 2016).

Experiments:
[1] = target: rat TRPV1, full-length channel expressed in HEK293 cells (rat) (UniProt O35433)
Sequence of rat TRPV1, full-length channel expressed in HEK293 cells (rat) (O35433 whole entry): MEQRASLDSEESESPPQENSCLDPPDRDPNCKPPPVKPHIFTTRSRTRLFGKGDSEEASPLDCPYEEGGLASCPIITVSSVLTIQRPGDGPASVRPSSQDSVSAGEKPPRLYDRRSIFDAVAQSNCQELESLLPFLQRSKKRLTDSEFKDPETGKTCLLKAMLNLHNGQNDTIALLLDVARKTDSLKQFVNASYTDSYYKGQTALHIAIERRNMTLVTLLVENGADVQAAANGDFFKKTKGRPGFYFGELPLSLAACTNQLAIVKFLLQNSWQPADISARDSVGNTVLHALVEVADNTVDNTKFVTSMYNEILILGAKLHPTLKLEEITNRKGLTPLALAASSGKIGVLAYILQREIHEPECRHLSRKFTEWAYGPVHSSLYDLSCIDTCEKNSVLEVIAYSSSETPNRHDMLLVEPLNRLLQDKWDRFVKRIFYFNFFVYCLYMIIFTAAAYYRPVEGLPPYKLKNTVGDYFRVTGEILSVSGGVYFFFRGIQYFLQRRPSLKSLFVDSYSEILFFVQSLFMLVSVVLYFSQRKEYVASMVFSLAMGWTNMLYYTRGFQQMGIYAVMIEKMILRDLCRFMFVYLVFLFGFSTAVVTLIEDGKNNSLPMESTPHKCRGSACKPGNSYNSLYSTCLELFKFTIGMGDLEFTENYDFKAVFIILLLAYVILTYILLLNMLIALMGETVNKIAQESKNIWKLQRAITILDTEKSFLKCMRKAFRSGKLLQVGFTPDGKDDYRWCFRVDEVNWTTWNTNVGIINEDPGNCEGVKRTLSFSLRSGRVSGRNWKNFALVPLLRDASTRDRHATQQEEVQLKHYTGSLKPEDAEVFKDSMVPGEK

Sequence of double-knot toxin (DkTx), full-length toxin produced recombinantly (natural protein) (P0CH43 1-75): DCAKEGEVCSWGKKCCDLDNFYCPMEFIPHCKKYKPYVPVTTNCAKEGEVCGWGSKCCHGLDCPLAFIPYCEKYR

Substance	Trp emission maximum in aqueous solution	fractional dissociation 1 min after toxin removal (current 1 min after removal divided by steady-state current with toxin), whole-cell patch clamp at +120 mV, TRPV1 in HEK cells [1]
double-knot toxin	353 nm	–
double-knot toxin (DkTx), full-length toxin produced recombinantly (natural protein)	–	0.8
